Assay results as given in patent publication US20240156825A1, “USE OF SELECTIVE VEGFR2 AND FGFR1 INHIBITORS” (Fountain Therapeutics Inc., priority 2022, published 2024).
Where two headings read alike, the source gives them in different places.

How the values were obtained:
VEGFR2 = VEGFR2 (Homo sapiens, UniProt P35968)
FGFR1 = FGFR1 (Homo sapiens, UniProt P11362)
VEGFR2 and FGFR1 = test: Selection of compounds that selectively inhibit both VEGFR2 and FGFR1 (average relative IC50); format: biochemical
any gene target = details: cited from earlier work
[1] = relative IC50: reported IC50 toward VEGFR2 divided by next lowest reported IC50 to any gene target
[2] = relative IC50: reported IC50 toward FGFR1 divided by next lowest reported IC50 to any gene target
[3] = average of VEGFR2 and FGFR1 relative IC50
[4] = lowest reported IC50 to any gene target, read-out: min IC50
[5] = next lowest IC50 value to any gene target, read-out: Min IC50_μM

Chain of VEGFR2 (P35968 20-1356, species assumed): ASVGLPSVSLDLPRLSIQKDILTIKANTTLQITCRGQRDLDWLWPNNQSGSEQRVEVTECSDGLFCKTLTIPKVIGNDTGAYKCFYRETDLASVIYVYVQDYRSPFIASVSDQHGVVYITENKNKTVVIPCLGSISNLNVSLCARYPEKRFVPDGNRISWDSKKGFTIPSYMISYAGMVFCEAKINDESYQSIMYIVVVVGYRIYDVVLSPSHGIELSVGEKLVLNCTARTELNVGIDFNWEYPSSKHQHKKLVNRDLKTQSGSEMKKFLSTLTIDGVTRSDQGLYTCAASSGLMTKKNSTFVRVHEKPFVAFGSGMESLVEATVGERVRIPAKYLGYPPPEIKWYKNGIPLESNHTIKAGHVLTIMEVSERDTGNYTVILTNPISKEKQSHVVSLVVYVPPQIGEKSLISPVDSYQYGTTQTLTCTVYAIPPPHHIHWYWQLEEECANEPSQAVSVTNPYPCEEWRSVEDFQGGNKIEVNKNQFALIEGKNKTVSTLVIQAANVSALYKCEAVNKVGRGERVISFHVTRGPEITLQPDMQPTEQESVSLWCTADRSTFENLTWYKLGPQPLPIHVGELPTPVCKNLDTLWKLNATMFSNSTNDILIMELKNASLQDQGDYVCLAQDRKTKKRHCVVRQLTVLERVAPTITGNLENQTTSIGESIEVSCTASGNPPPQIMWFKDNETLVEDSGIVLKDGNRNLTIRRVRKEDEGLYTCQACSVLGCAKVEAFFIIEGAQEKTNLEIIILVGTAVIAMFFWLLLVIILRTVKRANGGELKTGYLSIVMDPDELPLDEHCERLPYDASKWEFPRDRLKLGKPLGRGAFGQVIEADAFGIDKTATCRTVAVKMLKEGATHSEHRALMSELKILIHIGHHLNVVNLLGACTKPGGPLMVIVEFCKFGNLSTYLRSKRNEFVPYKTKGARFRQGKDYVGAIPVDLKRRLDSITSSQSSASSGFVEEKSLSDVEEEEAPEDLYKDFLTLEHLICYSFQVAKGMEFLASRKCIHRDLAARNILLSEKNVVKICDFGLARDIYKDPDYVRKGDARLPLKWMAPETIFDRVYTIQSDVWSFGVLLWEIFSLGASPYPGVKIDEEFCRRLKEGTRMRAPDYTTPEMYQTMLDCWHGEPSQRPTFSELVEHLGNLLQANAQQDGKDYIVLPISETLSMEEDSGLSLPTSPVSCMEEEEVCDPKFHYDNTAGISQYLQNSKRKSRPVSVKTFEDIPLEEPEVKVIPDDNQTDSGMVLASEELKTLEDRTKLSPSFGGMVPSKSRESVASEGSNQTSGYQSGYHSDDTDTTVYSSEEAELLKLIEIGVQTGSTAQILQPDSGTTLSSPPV
Chain of FGFR1 (P11362 22-822, species assumed): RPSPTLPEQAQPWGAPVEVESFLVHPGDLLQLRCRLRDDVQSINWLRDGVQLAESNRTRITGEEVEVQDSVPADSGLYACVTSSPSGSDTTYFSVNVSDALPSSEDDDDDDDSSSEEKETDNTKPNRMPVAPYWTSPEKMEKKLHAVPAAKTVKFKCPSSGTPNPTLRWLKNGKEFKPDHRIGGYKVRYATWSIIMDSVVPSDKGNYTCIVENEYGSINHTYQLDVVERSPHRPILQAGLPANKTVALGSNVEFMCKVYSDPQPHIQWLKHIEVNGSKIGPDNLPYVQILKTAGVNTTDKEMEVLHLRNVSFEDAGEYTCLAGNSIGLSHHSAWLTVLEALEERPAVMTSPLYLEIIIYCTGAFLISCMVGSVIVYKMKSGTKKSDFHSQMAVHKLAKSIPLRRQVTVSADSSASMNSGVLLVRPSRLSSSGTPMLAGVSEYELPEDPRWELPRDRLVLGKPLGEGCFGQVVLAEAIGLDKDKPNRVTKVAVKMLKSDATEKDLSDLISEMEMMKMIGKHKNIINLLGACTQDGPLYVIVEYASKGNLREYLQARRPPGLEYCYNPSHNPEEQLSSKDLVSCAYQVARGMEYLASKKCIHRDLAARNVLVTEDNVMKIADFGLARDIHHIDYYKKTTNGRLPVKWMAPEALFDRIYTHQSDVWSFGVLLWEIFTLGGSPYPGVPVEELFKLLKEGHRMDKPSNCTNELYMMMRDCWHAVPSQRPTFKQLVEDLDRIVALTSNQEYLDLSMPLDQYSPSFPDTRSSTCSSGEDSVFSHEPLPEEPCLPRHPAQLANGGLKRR

SMILES | VEGFR2, rIC50 (VEGFR2; [1]) | FGFR1, rIC50 (FGFR1; [2]) | avg rIC50 (VEGFR2 and FGFR1; [3]) | IC50 (any gene target; [4]) | further results
NC(=O)c1c(OCc2c(F)cc(Br)cc2F)nsc1NC(=O)NCCCCN1CCCC1 [compound 9811611, 3-((4-Bromo-2,6-difluorobenzyl)oxy)-5-(3-(4-(pyrrolidin-1-yl)butyl)ureido)isothiazole-4-carboxamide] | 0.4 | 6.7 | 3.6 | 1 nM | IC50 (any gene target; [5]): 3.08 nM
CONC(=O)c1cc(Nc2ncnn3cc(-c4nnc(C(F)F)o4)c(C(C)C)c23)c(F)cc1F [compound 10073832, 5-[6-(5-Difluoromethyl-[1,3,4]oxadiazol-2-yl)-5-isopropyl-pyrrolo[2,1-f][1,2,4]triazin-4-ylamino]-2,4-difluoro-N-methoxy-benzamide] | 1.0 | 1.2 | 1.1 |  | 
CONC(=O)c1cc(Nc2ncnn3cc(-c4nnc(C)[nH]4)c(C(C)C)c23)c(F)cc1F [compound 11328182, 2,4-Difluoro-5-[5-isopropyl-6-(5-methyl-4H-[1,2,4]triazol-3-yl)-pyrrolo[2,1-f][1,2,4]triazin-4-ylamino]-N-methoxy-benzamide] | 1.1 |  |  | 46 nM | FGFR1, rIC50 (FGFR1): 1.0; avg rIC50 (VEGFR2 and FGFR1): 1.0; IC50 (any gene target; lowest reported IC50 to any gene target, read-out: Min IC50_μM): 46 nM
CONC(=O)c1cc(Nc2ncnn3cc(-c4nnc(C(F)(F)S(C)(=O)=O)o4)c(C(C)C)c23)c(F)cc1F [compound 11432911, 5-{6-[5-(Difluoro-methanesulfonyl-methyl)-[1,3,4]oxadiazol-2-yl]-5-isopropyl-pyrrolo[2,1-f][1,2,4]triazin-4-ylamino}-2,4-difluoro-N-methoxy-benzamide] | 1.0 | 4.8 | 2.9 |  | 
Cc1cc2cc(Nc3ncnn4cc(-c5nnc(C)o5)c(C(C)C)c34)cnc2[nH]1 [compound 22273644, 5-Isopropyl-6-(5-methyl-1,3,4-oxadiazol-2-yl)-N-(2-methyl-1H-pyrrolo[2,3-b]pyridin-5-yl)pyrrolo[2,1-f][1,2,4]triazin-4-amine] | 0.5 | 3.1 | 1.8 | 25 nM | IC50 (any gene target; [5]): 53 nM
CNC(=O)c1cccc2cc(Oc3ccnc4cc(OCC5(N)CC5)c(OC)cc34)ccc12 [compound 25031915, Lucitanib] | 3.6 |  | 3.0 | 10 nM | FGFR1, rIC50 (FGFR1): 2.5
CCS(=O)(=O)c1ccc2c(c1)C(=Cc1[nH]c3c(c1CN1CCOCC1)CCCC3)C(=O)N2 [compound 44299203, 3-[3-(Morpholinomethyl)-4,5,6,7-tetrahydro-1H-indole-2-ylmethylene]-5-(ethylsulfonyl)-2,3-dihydro-1H-indole-2-one] | 1.4 | 5.7 | 3.6 | 70 nM | 
Cc1nnc(-c2cn3ncnc(Nc4cnc5[nH]ccc5c4)c3c2C(C)C)o1 [compound 44449577, 6-(5-Methyl-1,3,4-oxadiazol-2-yl)-5-propan-2-yl-N-(1H-pyrrolo[2,3-b]pyridin-5-yl)pyrrolo[2,1-f][1,2,4]triazin-4-amine] | 0.5 |  |  |  | FGFR1, rIC50 (FGFR1): 2.0; avg rIC50 (VEGFR2 and FGFR1): 1.2; IC50 (any gene target; read-out: Min IC50_μM): 61 nM; IC50 (any gene target; read-out: min IC50): 61 nM
O=C1c2ccc(O)c(O)c2OC[C@]1(O)Cc1ccc(O)c(O)c1 [compound 44578561, Hematoxylone] | 7.2 | 3.4 | 5.3 |  | 
CN(C)CCCc1cccc(Nc2ncc3c(n2)-c2ccc(Cl)cc2NC(=S)C3)c1 [compound 56945277, 9-Chloro-2-[3-[3-(dimethylamino)propyl]anilino]-5,7-dihydropyrimido[5,4-d][1]benzazepine-6-thione] |  | 2.4 |  |  | 
CNC(=O)c1cccc2cc(Oc3ccnc4cc(OCC5(N)CC5)c(OC)cc34)ccc12.Cl [compound 57379018, 6-((7-((1-Aminocyclopropyl)methoxy)-6-methoxyquinolin-4-yl)oxy)-N-methyl-1-naphthamide hydrochloride] | 3.6 |  | 3.0 |  | FGFR1, rIC50 (FGFR1): 2.5; IC50 (any gene target; read-out: min IC50): 10 nM
COc1cc2c(cc1F)C(c1ccccc1Cl)=NC1=C(C)NNC1=N2 [compound 135398512, 5-(2-Chlorophenyl)-7-fluoro-1,2-dihydro-8-methoxy-3-methylpyrazolo(3,4-b)(1,4)benzodiazepine] |  |  | 1.6 |  | VEGFR2, rIC50 (VEGFR2): 0.4; FGFR1, rIC50 (FGFR1): 2.8; IC50 (any gene target; read-out: Min IC50_μM): 24 nM; IC50 (any gene target; read-out: min IC50): 24 nM
COC(=O)c1ccc2c(C(=Nc3ccc(CN(C)C(=O)N(C)C)cc3)c3ccccc3)c(O)[nH]c2c1 [compound 135837837, Methyl 3-[N-[4-[[dimethylcarbamoyl(methyl)amino]methyl]phenyl]-C-phenylcarbonimidoyl]-2-hydroxy-1H-indole-6-carboxylate] | 6.1 | 5.0 | 5.6 | 10 nM | 

Now from value to compound, other results behind:

VEGFR2, rIC50 (VEGFR2; [1]) | FGFR1, rIC50 (FGFR1; [2]) | SMILES | avg rIC50 (VEGFR2 and FGFR1; [3]) | IC50 (any gene target; [4]) | further results
0.4 | 2.4 | COc1ccc(N2Cc3cnc(Nc4ccccc4)nc3N([C@@H]3CC[C@@H](O)C3)C2=O)cc1 [compound 9910609, (+)-(1R,3R)-1-(3-Hydroxy-cyclopentyl)-3-(4-methoxy-phenyl)-7-phenylamino-3,4-dihydro-1H-pyrimido[4,5-d]pyrimidin-2-one] | 1.4 | 28 nM | IC50 (any gene target; [5]): 28 nM
0.5 | 2.5 | COc1ccc(N2Cc3cnc(Nc4ccccc4)nc3N([C@H]3CC[C@H](O)C3)C2=O)cc1 [compound 11407794, (−)-(1S,3S)-1-(3-Hydroxy-cyclopentyl)-3-(4-methoxy-phenyl)-7-phenylamino-3,4-dihydro-1H-pyrimido[4,5-d]pyrimidin-2-one] | 1.5 | 33 nM | IC50 (any gene target; [5]): 33 nM
5.8 | 3.0 | Nc1c(-c2nc3ccccc3[nH]2)c(=O)[nH]c2ccccc12 [compound 135410282, 4-Amino-3-(1H-benzo[d]imidazol-2-yl)quinolin-2(1H)-one] | 4.4 | 10 nM | 
1.6 | 2.0 | Fc1ccc2c(-c3nc4cc(N5CCC(N6CCCCC6)CC5)ccc4[nH]3)n[nH]c2c1 [compound 135458467, 2-(6-Fluoro-1H-indazol-3-yl)-5-(4-(piperidin-1-yl)piperidin-1-yl)-1H-benzo[d]imidazole] | 1.8 | 16 nM | 
1.6 |  | COC(=O)c1ccc2c(c1)NC(=O)/C2=C(\Nc1ccc(N(C)C(=O)CN2CCN(C)CC2)cc1)c1ccccc1 [compound 135476717, Nintedanib esylate] |  | 13 nM | avg rIC50 (VEGFR2 and FGFR1): 3.5
8.3 | 0.4 | C[C@@H](Oc1ccc2[nH]nc(-c3nc4cc(N5CCN(C)CC5)ccc4[nH]3)c2c1)c1c(Cl)cncc1Cl [compound 136211077, 5-[(R)-1-(3,5-Dichloropyridine-4-yl)ethoxy]-3-[5-(4-methylpiperazine-1-yl)-1H-benzoimidazole-2-yl]-1H-indazole] | 4.4 | 1 nM | IC50 (any gene target; Table 2, lowest reported IC50 to any gene target, read-out: Min IC50_μM): 2 nM
